For orientation: EC50 means the concentration that produces a half-maximal response. Read a low EC50 as higher potency in that assay. The term IC50 denotes the concentration that inhibits the measured activity by half.

For experiment [1], the target named is IRE1α-KR43 (Homo sapiens, UniProt O75460). The experiment is described as follows: FRET-based RNA cleavage assay (fluorescent HP17 substrate) of IRE1α-KR43 RNase activity.
Experiment [2] addresses T1, GST-PERK kinase domain (580–1077 aa) (Mus musculus, UniProt Q9Z2B5).
T1 sequence (Q9Z2B5 580-1077): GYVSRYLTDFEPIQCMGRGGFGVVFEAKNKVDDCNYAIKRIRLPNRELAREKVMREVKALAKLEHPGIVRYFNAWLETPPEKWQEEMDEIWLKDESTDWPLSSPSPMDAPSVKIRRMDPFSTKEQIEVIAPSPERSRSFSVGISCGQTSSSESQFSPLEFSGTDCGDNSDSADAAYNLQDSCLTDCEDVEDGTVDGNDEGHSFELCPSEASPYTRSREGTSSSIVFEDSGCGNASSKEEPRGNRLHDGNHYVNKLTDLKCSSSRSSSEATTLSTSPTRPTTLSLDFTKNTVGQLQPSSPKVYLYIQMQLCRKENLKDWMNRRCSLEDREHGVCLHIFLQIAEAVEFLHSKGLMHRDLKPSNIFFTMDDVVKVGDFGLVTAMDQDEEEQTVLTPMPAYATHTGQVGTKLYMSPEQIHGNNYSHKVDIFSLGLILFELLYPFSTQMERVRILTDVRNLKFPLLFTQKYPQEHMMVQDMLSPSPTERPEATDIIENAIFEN
Put plainly: In vitro GST-PERK kinase assay (eIF2α phosphorylation with γ-[32P]-ATP).

In experiment [3] the test system is IRE1α-GFP in T-REx293 cells. The experiment is described as follows: IRE1-GFP foci formation in T-REx293 cells (confocal microscopy). To be noted: doxycycline-induced IRE1α-GFP. It counts as cell-based. From the text:
We next used a T-REx293 cell line, containing a genome-integrated doxycycline-inducible IRE1α-GFP fusion gene, to monitor IRE1α oligomerization in vivo ([Li et al., 2010]). In the presence of doxycycline, IRE1α-GFP was expressed and localized to the ER (Figure 2D). […] Furthermore, the foci dissolved by 8 hr of treatment as cells attenuated IRE1α signaling even in the presence of unmitigated ER stress (Figure 2D, upper panels) ([Li et al., 2010]). […] While Tm-induced foci became larger and fewer over time as previously observed, IPA-induced foci remained small and numerous.
T-REx293 cells were split 2 days before imaging onto glass-bottom micro-well dishes (MatTek) at 5 × 10^4 cells/dish. Doxycyclin-containing medium (10 nM doxycycline) was added for 24 hr, withdrawn before imaging and replaced with imaging media (Hank's Balanced Salt Solution [Gibco], 2% FBS, and 5 mM HEPES pH 7.0). Images were acquired on a spinning-disk confocal microscope as described ([Li et al., 2010]).

Experiment [4] relates to ATF6 transcriptional targets HERPUD1 (HERP1) and DERLIN3 (DERL3). The experiment is described as follows: ATF6 target mRNAs HERP1 and DERL3 by RT-PCR in HEK293T cells. It counts as cell-based. To be noted: IPA 1 μM and 4 μM, Tm. From the text:
To assess the effects of IPA on the activity of the two other UPR branches, we first examined activation of ATF6. To this end, we monitored mRNA levels by RT-PCR for two ATF6-driven transcriptional target genes, HERP1 and DERL3, in HEK293T cells.
Cells were lysed and total RNA was collected (Total RNA Kit 1, EZ-RNA, EZNA [USA]). PolyA^+ mRNA was reverse transcribed with M-MLV (Invitrogen), and the resulting cDNA was used as a template for PCR amplification across the fragment of XBP1 cDNA containing the intron. Primers used to amplify human XBP1: 5′-[…]-3′ and 5′-[…]-3′. To amplify murine XBP1: 5′-[…]-3′ and 5′-[…]-3′. PCR conditions were as follows: 95°C for 5 min, 95°C for 1 min, 58°C for 30 s, 72°C for 30 s, and 72°C for 5 min, with 20 cycles of amplification. PCR products were resolved on a 2.5% agarose tris-acetate EDTA (TAE) gel. As previously reported, a hybrid amplicon species consisting of unspliced Xbp-1 annealed to spliced Xbp-1 can also be produced through this PCR reaction and was visible as a slower migrating band above the unspliced amplicon. The same cDNA was used as template for PCR of DERLIN-3 and HERPUD1, both ATF6 targets, and GAPDH, which was used as loading control. Primers used included the following: DERLIN-3, 5′-[…]-3′ and 5′-[…]-3′; HERPUD1-1, 5′-[…]-3′ and 5′-[…]-3′; GAPDH, 5′-[…]-3′ and 5′-[…]-3′. […]

Experiment [5] has as its system protein translation in HEK293T cells. The experiment is described as follows: Metabolic labeling: [35S] methionine incorporation in HEK293T cells. It counts as cell-based. The settings on record: IPA 1 μM. As to the method: HEK293T cells (500,000 cells/ml) were plated in 12-well flat bottom culture cluster dishes (Costar, Fisher Scientific) 24 hr before the experiment. IPA (1 μM), or a combination of IPA with GSK2606414 (TRC inc. […] Cells lysates were kept on ice for 30 min before high-speed centrifugation followed by denaturation at 95°C. The samples were resolved on an SDS-polyacrylamide gel, which were then stained with Coomassie blue to ascertain protein loading. […] The resulting autoradiograms were quantified using ImageQuant software (Molecular Dynamics).

Experiment [6] relates to mouse embryonic fibroblast (MEFs) cells. Put plainly: XBP1 mRNA splicing, PERK shift and eIF2α phosphorylation in WT, Ire1−/− and Perk−/− MEFs. It counts as cell-based. The settings on record: IPA 1 µM, 4 hr. From the text:
PERK activation by IPA could be due to direct binding of IPA to PERK, or it could be caused by indirect activation of PERK by IRE1. If the latter were true, IPA should not trigger PERK activation in the absence of IRE1. To test this notion, we treated mouse embryonic fibroblasts (MEFs) derived from Ire1α^−/− and Perk^−/− knock-out mice with IPA and monitored XBP1 mRNA splicing, and PERK and eIF2α phosphorylation.
Cells were lysed and total RNA was collected (Total RNA Kit 1, EZ-RNA, EZNA [USA]). PolyA^+ mRNA was reverse transcribed with M-MLV (Invitrogen), and the resulting cDNA was used as a template for PCR amplification across the fragment of XBP1 cDNA containing the intron. Primers used to amplify human XBP1: 5′-[…]-3′ and 5′-[…]-3′. To amplify murine XBP1: 5′-[…]-3′ and 5′-[…]-3′. PCR conditions were as follows: 95°C for 5 min, 95°C for 1 min, 58°C for 30 s, 72°C for 30 s, and 72°C for 5 min, with 20 cycles of amplification. PCR products were resolved on a 2.5% agarose tris-acetate EDTA (TAE) gel. As previously reported, a hybrid amplicon species consisting of unspliced Xbp-1 annealed to spliced Xbp-1 can also be produced through this PCR reaction and was visible as a slower migrating band above the unspliced amplicon. The same cDNA was used as template for PCR of DERLIN-3 and HERPUD1, both ATF6 targets, and GAPDH, which was used as loading control. Primers used included the following: DERLIN-3, 5′-[…]-3′ and 5′-[…]-3′; HERPUD1-1, 5′-[…]-3′ and 5′-[…]-3′; GAPDH, 5′-[…]-3′ and 5′-[…]-3′. PCR conditions were: 95°C × 5 min, 95°C × 1 min, 56°C × 30 s, 72°C for 30 s for 25 cycles, 72°C for 5 min at 4°C. PCR products were resolved on a 2% agarose TAE gel.
Cells were lysed in 50 mM Tris-HCl, 2% SDS, 10% glycerol, 0.01% bromophenol blue, pH 6.8 supplemented with phosphatase inhibitors (Sigma) and protease inhibitors (Roche). 30 μg to 50 μg of total protein was loaded on each lane of 8% or 10% SDS-PAGE gels. The separated proteins were then transferred onto nitrocellulose membranes for immunoblotting. The following antibodies and dilutions were used: anti-β-actin 1:10,000 (A5441, Sigma), anti-total PERK at 1:1000 (C33E10, Cell Signaling Technology), anti-phospho eIF2α at 1:1000 (3597S, Cell Signaling Technology), anti-total eIF2α at 1:1000 (L57A5, Cell Signaling Technology). After overnight incubation with primary antibody, membranes were washed in PBS with 0.05% Tween and incubated in HRP-coupled secondary antibody anti-rabbit (611–1302, Rockland) or anti-mouse (610–1302, Rockland) diluted at 1:5000 in wash buffer. Immunoreactive bands were detected by chemiluminescence.

Chain of IRE1α-KR43 (O75460 465-977 limits assumed): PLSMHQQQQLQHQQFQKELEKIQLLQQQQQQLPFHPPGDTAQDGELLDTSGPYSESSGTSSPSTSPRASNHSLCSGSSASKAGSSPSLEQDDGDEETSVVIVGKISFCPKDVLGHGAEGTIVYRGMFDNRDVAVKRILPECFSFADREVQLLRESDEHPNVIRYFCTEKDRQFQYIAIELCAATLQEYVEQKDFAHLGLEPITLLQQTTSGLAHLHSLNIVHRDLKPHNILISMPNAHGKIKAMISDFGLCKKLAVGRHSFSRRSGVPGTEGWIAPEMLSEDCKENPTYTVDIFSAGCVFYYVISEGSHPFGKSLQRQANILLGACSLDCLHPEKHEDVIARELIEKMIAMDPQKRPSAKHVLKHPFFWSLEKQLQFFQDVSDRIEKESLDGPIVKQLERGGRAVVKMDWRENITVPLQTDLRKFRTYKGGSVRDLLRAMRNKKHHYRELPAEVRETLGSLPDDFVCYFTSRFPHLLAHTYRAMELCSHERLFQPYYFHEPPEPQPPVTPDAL

The molecule `CSc1ccc(NC(=O)Nc2ccc(Nc3nccc(Nc4cc(C5CC5)[nH]n4)n3)cc2)cc1` [IPA] returned a concentration for a half-maximal effect (EC50) in experiment [1] of 0.36 µM. In experiment [2], the IC50 came to 2.8 µM. Moreover, the IRE1α-GFP foci formation result in experiment [3] is reported as “caused relocalization of IRE1α-GFP into foci”. Further, the “induction of ATF6 target genes HERP1 and DERL3” value in experiment [4] is given as “no detectable induction”. Moreover, in experiment [5], the “incorporation of [35S]-methionine into newly synthesized proteins” value is recorded as “impaired”. In experiment [6] (Ire1α−/− MEFs), the “PERK phosphorylation and eIF2α phosphorylation in Ire1α−/− MEFs” value is on record as “pronounced PERK phosphorylation”; the “XBP1 mRNA splicing in Ire1α−/− MEFs” value was “no IPA-induced XBP1 mRNA splicing”. Further, the “eIF2α phosphorylation in Perk−/− MEFs” value in experiment [6] (Perk−/− MEFs) was “only a trace amount of IPA-induced eIF2α phosphorylation”. The “UPR branch activation in wild-type MEFs” value in experiment [6] (WT MEFs) is “induced both the PERK and IRE1 branches of the UPR”.

Source of the values: paper PMC4436593, “Endoplasmic reticulum stress-independent activation of unfolded protein response kinases by a small molecule ATP-mimic” (eLife, 2015).
